Test results from a melting point compilation (Tetko et al.; mined from patent text by program, amines drawn as free bases though some values may be those of a salt).

Which melting point does the source give for `NC(=O)c1cn2c(ccc3ccccc32)n1` here?
The melting point was 270 to 271 °C.

Which melting point does the source give for `N#Cc1c[nH]c2cc(N3CCC(N4CCCC4)CC3)c([N+](=O)[O-])cc2c1=O` here?
The melting point was 232 to 235 °C.

With `CSC1C(=O)Nc2c(Nc3ccccc3Cl)cccc21` (stereo not given) as the compound, how does the melting point read?
Its melting point is 151 to 153 °C.

Which melting point does the source give for `CNS(=O)(=O)Cc1ccccc1Br` here?
Its melting point is 72.5 to 74 °C.

With `CC(C)C[C@H](NC(=O)OCc1ccccc1)C(=O)N[C@@H](Cc1ccccc1)C(=O)O` as the compound, how does the melting point read?
The melting point was 120 to 122 °C.

For `Cc1cccc(-c2ccc([N+](=O)[O-])cc2)c1`, which melting point is on record?
Its melting point is 59 to 60 °C.

With `O=C(NC(Cc1ccccc1Cl)C(=O)N1CCSC1)c1cc2cc(Cl)ccc2[nH]1` (stereo not given) as the compound, how does the melting point read?
The melting point was 214 to 216 °C.

Which melting point does the source give for `COc1ccc(N2CCN(c3ccc(-n4cnn([C@H](C)[C@@]5(c6ccc(F)cc6F)CO5)c4=O)cc3)CC2)cc1` here?
Its melting point is 175 to 176 °C.

For `Nc1ccc(C(=O)N2CCCCCC2=O)cc1`, which melting point is on record?
The melting point was 156 to 158 °C.

With `O=C(O)c1ccc(CNc2nc(-c3cccnc3)nc3ccccc23)cc1` as the compound, how does the melting point read?
The melting point was 285 to 294 °C.

Which melting point does the source give for `O=C(Nc1ccc2c(c1)CCC2)C(=O)N1CCC(Cc2ccccc2)CC1` here?
Its melting point is 106 to 109 °C.

Which melting point does the source give for `C#CCON=C(C)C1CN2CCC1CC2` (stereo not given) here?
Its melting point is 56 to 58 °C.

With `CC(C)n1nc(-c2c(-c3ccccc3)nc(N)nc2-n2cncn2)ccc1=O` as the compound, how does the melting point read?
The melting point was 266 to 268 °C.

Which melting point does the source give for `CCCCc1c(C(=O)c2ccc(O)cc2)c2cc([N+](=O)[O-])ccc2n1C` here?
The melting point was 198 °C.

Which melting point does the source give for `COC(=O)c1cn(C(c2ccccc2)(c2ccccc2)c2ccccc2)nn1` here?
The melting point was 189 to 190 °C.

With `CN(c1ccccc1)c1ncccc1NC(=O)c1ccccc1F` as the compound, how does the melting point read?
Its melting point is 84 to 86 °C.

With `O=S(CCCCCCOc1ccc(C2=C(c3ccccc3)CCCc3cc(O)ccc32)cc1)CCCC(F)(F)C(F)(F)F` (stereo not given) as the compound, how does the melting point read?
The melting point was 121 °C.

With `CCCCN(CCCC)c1ccc2c(c1)O/C(=C1/Oc3cc(N(CCCC)CCCC)ccc3C1=O)C2=O` as the compound, how does the melting point read?
The melting point was 216 °C.

Which melting point does the source give for `CCN(c1ccc(Cl)cc1C(O)c1ccccc1Cl)S(=O)(=O)c1ccc(OC)c(OC)c1` (stereo not given) here?
Its melting point is 154 °C.

Which melting point does the source give for `CS(=O)(=O)c1ccc(-c2sc(COc3cc(Cl)cc(Cl)c3)nc2-c2ccc(F)cc2)cc1` here?
Its melting point is 171 to 173 °C.

For `Cc1cc(N)n(C(CCc2ccccc2)=NO)n1`, which melting point is on record?
Its melting point is 138 to 140 °C.

For `CCCOC(=O)c1cn(CC)c2nc(N3CCNCC3)ncc2c1=O`, which melting point is on record?
Its melting point is 152 °C.

Which melting point does the source give for `CCOc1cc(C2c3cccc(C4CC4C(N)=O)c3C(=O)N2CCS(C)(=O)=O)ccc1O` (stereo not given) here?
Its melting point is 296 °C.

Which melting point does the source give for `CCC(=O)c1cc(Cl)c(O)c(Cl)c1` here?
The melting point was 50 to 52 °C.

For `O=C1CCC(C(=O)Nc2ccccc2C(=O)c2ccccc2)O1` (stereo not given), which melting point is on record?
Its melting point is 100 to 102 °C.

Which melting point does the source give for `CCCCCCCCC(C)C(N)=O` (stereo not given) here?
Its melting point is 80 to 81 °C.

Which melting point does the source give for `Cn1c(CCNS(C)(=O)=O)nnc1NCCCOc1cccc(CN2CCCCC2)c1` here?
Its melting point is 105 to 106 °C.

Which melting point does the source give for `COc1ccc(-c2[nH]nc3c2C(=O)c2c(NC(=O)Cc4ccccc4Cl)cccc2-3)cc1` here?
The melting point was 300 °C.

For `CCCN1C(=O)N2C[C@@H](Cc3ccccc3)N=C2c2c1nc(Br)n2Cc1ccccc1`, which melting point is on record?
Its melting point is 200 to 206 °C.

Which melting point does the source give for `CC(C#Cc1ccc(OCc2ccccc2)cc1)N(O)C(N)=O` (stereo not given) here?
Its melting point is 154 to 156 °C.

With `CCOCCNc1nc(C)c(CCO)c(=O)n1C` as the compound, how does the melting point read?
The melting point was 194 °C.

With `CCCCCCCCCCOC(C)c1ccc(C(=O)O)cc1` (single isomer, unassigned; (+)) as the compound, how does the melting point read?
Its melting point is 56.6 to 57.5 °C.

With `O=C(NOCCO)c1ccc(F)c(F)c1Nc1ccccc1F` as the compound, how does the melting point read?
Its melting point is 130 °C.

Which melting point does the source give for `CC(=O)Nc1ccsc1C(=O)c1ccccc1` here?
Its melting point is 93 to 95 °C.

With `CC(C)(Cc1ccccc1)C(NC(=O)c1ccc(Cl)cc1)NC(=NC#N)Nc1cccnc1` (stereo not given) as the compound, how does the melting point read?
The melting point was 182 to 183 °C.

Which melting point does the source give for `CCOC(=O)c1c(CN(CC)CC)nc2sc3c(c2c1-c1ccc(OC)c(OC)c1)CCN=C3` here?
Its melting point is 118 to 120 °C.

With `O[C@@H]1C=CC=C(Cl)[C@@H]1O` (relative stereo) as the compound, how does the melting point read?
Its melting point is 95 to 96 °C.

Which melting point does the source give for `Cc1[nH]c(=O)c(C#N)cc1-c1ccc2ncc(Cl)n2c1` here?
The melting point was > 300 °C.

With `COP(=O)(Cc1ccc2ccc(CP(=O)(OC)OC)cc2c1)OC` as the compound, how does the melting point read?
Its melting point is 87 to 88 °C.

Which melting point does the source give for `Cc1cc(-c2cnn3c(C(F)(F)F)cc(-c4ccc(OCC(F)(F)F)c(C(F)(F)F)c4)nc23)cc(C)n1` here?
Its melting point is 229 °C.

Which melting point does the source give for `CC(N)c1nc2cccc(Cl)c2c(=O)n1-c1cc(F)cc(F)c1` (stereo not given) here?
Its melting point is 200 to 202 °C.

With `COc1ccc2cnc(Nc3ccc(N4CCNCC4)c(F)c3)nc2c1C1CCCC1` as the compound, how does the melting point read?
The melting point was 228 to 229 °C.

Which melting point does the source give for `CCSc1nc2c(C)sc(C(=O)O)c2n1Cc1ccc(-c2ccccc2-c2nnnn2C(c2ccccc2)(c2ccccc2)c2ccccc2)cc1` here?
The melting point was 138 to 140 °C.

With `CCNCCCN1c2ccccc2N(C)C(=O)c2c(C)cc(C)nc21` as the compound, how does the melting point read?
Its melting point is 101 to 103 °C.

Which melting point does the source give for `CC1(C)C(=O)Nc2cc3oc(-c4ccncc4)nc3cc21` here?
Its melting point is 336 to 338 °C.

Which melting point does the source give for `O=C(O)c1ccc([N+](=O)[O-])c(C(=O)O)c1` here?
The melting point was 257 to 258 °C.

For `Cc1cc(Cl)cc(C(=O)NC2(C)CSC2)c1NC(=O)c1cc(C(F)(F)F)nn1-c1ncccc1Cl`, which melting point is on record?
The melting point was 238 to 241 °C.

For `CCCc1nn(C)c2c(=O)n(CCOc3cccc(OC(C)(CC)C(=O)O)c3)c(C)nc12` (stereo not given), which melting point is on record?
Its melting point is 130 to 132 °C.

With `O=C(O)COc1cc(Cl)ccc1C(=O)NCc1nc2cc(C(F)(F)F)ccc2s1` as the compound, how does the melting point read?
The melting point was 225 to 227 °C.

Which melting point does the source give for `O=C(Nc1ccccc1S(=O)(=O)c1ccccc1)N[C@@H](Cc1ccc(NC(=O)c2c(Cl)cccc2Cl)cc1)C(=O)O` here?
Its melting point is 227 °C.

With `COc1ccc(C(=O)NCCCC(=O)O)cc1OCc1ccccc1` as the compound, how does the melting point read?
The melting point was 156 to 158 °C.

Which melting point does the source give for `O=C(Nc1ccc(-c2ccccc2)s1)C1CCCCC1` here?
The melting point was 174 °C.

For `COc1ccc(CNc2ncnc3c2ncn3C2OC(CNC(C)=O)C(O)C2O)cc1` (stereo not given), which melting point is on record?
The melting point was 121 to 122 °C.

Which melting point does the source give for `CCSC1=C(C#N)C(c2ccccc2)(c2ccccc2)C(=O)N1CCCNC(=O)OC(C)(C)C` here?
The melting point was 88 °C.

With `C=CCc1cc(C(=O)OC)ccc1-c1ccc(OC)c(OC)c1` as the compound, how does the melting point read?
The melting point was 99 to 103 °C.

Which melting point does the source give for `N#Cc1cc(Cl)ccc1Oc1cccc(O)c1` here?
Its melting point is 118 to 120 °C.

Which melting point does the source give for `CN(C)C(=O)c1ncn2c(=O)n(CCCl)nnc12` here?
Its melting point is 114 to 116 °C.

Which melting point does the source give for `CCc1cc(Br)cc2nc3c(=O)[nH][nH]c(=O)c3c(O)c12` here?
Its melting point is 208 to 210 °C.

For `COc1cc(OCc2ccccc2)cc(Cl)c1Cl`, which melting point is on record?
The melting point was 79 to 81 °C.

For `COc1ccc(CNc2cc(Cn3c(Oc4cc(C)cc(C)c4)c(C(C)C)c(=O)[nH]c3=O)cc(Cl)n2)cc1`, which melting point is on record?
Its melting point is 223 to 225 °C.

Which melting point does the source give for `NC(=O)c1cc2cc(N3CCN(Cc4ccccc4)CC3)ccc2o1` here?
The melting point was 206 to 208 °C.

With `CC(C)(CO)Nc1ccc2c(c1)C(=O)c1ccccc1C2=O` as the compound, how does the melting point read?
Its melting point is 218 to 220 °C.

With `CCCCc1nc2c(N)nc3ccccc3c2o1` as the compound, how does the melting point read?
The melting point was 96 to 98 °C.

Which melting point does the source give for `O=[N+]([O-])c1ccc(N2CCN3CCC2CC3)nc1` here?
The melting point was 143 to 146 °C.

With `N#CC(c1ccccc1)c1ccc([N+](=O)[O-])cc1C(F)(F)F` (stereo not given) as the compound, how does the melting point read?
The melting point was 70.4 °C.

With `O=C1Nc2ccccc2CCC1NC(CCc1ccccc1)C(=O)OCc1ccccc1` (stereo not given) as the compound, how does the melting point read?
The melting point was 139 to 141 °C.

For `CN1C(=O)CCC1(O)c1ccc(Cl)c(S(=O)(=O)NCCc2ccccc2)c1` (stereo not given), which melting point is on record?
The melting point was 149 to 153 °C.

With `COc1ccc(C[C@H]2NC(=O)O[C@H]2c2ccc(F)cc2)cc1` (racemic) as the compound, how does the melting point read?
Its melting point is 125 to 126 °C.

With `CSc1ccc(N)c([N+](=O)[O-])c1` as the compound, how does the melting point read?
Its melting point is 72 to 73 °C.

With `O=c1c2ccccc2cc(Cl)c2ccccc12` as the compound, how does the melting point read?
Its melting point is 118 to 121 °C.
